ChEMBL document CHEMBL4219271, “Synthesis and anti-proliferative activity of allogibberic acid derivatives containing 1,2,3-triazole pharmacophore” (Bioorg Med Chem Lett, 2018)

Assays:
HL-60 = experiment: Cytotoxicity against human HL60 cells assessed as decrease in cell viability after 4 days by MTT assay; type: functional, cell-based; conditions: HL-60, 96 h
SMMC-7721 = experiment: Cytotoxicity against human SMMC7721 cells assessed as decrease in cell viability after 4 days by MTT assay; type: functional, cell-based; conditions: SMMC-7721, 96 h
MCF7 [1] = experiment: Cytotoxicity against human MCF7 cells assessed as decrease in cell viability after 4 days by MTT assay; type: functional, cell-based; conditions: MCF7, 96 h
SW480 [2] = experiment: Potency index, ratio of cisplatin IC50 to compound IC50 for human SW480 cells; type: functional
SW480 [3] = experiment: Cytotoxicity against human SW480 cells assessed as decrease in cell viability after 4 days by MTT assay; type: functional, cell-based; conditions: SW480, 96 h
A549 = experiment: Cytotoxicity against human A549 cells assessed as decrease in cell viability after 4 days by MTT assay; type: functional, cell-based; conditions: A549, 96 h
MCF7 [4] = experiment: Potency index, ratio of cisplatin IC50 to compound IC50 for human MCF7 cells; type: functional

| Structure (SMILES) | IC50 (HL-60) [nM] | IC50 (SMMC-7721) [nM] | IC50 (MCF7 [1]) [nM] | Ratio IC50 (SW480 [2]) | IC50 (SW480 [3]) [nM] | IC50 (A549) [nM] | Ratio IC50 (MCF7 [4]) |
| --- | --- | --- | --- | --- | --- | --- | --- |
| C=C1C(=O)[C@]23C[C@@]1(O)CC[C@H]2c1ccc(O)c(C)c1[C@@H]3Cn1cc(-c2ccccc2)nn1 | 750 | 1320 | 1740 | 31 | 260 | 1160 | – |
| C=C1C(=O)[C@]23C[C@@]1(O)CC[C@H]2c1ccc(O)c(C)c1[C@@H]3Cn1cc(-c2ccccn2)nn1 | 1970 | 1270 | 2240 | 20 | 410 | 1570 | – |
| C=C1C(=O)[C@]23C[C@@]1(O)CC[C@H]2c1ccc(OS(=O)(=O)c2ccc(C)cc2)c(C)c1[C@@H]3Cn1cc(-c2ccc(Br)cc2)nn1 | 1020 | 4320 | 250 | – | 1590 | 1630 | 46 |
| C=C1C(=O)[C@]23C[C@@]1(O)CC[C@H]2c1ccc(O)c(C)c1[C@@H]3Cn1cc(-c2ccc(C(F)(F)F)cc2)nn1 | 720 | 1440 | 1840 | 22 | 370 | 1110 | – |
| C=C1C(=O)[C@]23C[C@@]1(O)CC[C@H]2c1ccc(O)c(C)c1[C@@H]3Cn1cc(-c2ccc(Cl)cc2)nn1 | 690 | 670 | 2470 | 29 | 280 | 640 | – |
| C=C1C(=O)[C@]23C[C@@]1(O)CC[C@H]2c1ccc(OS(=O)(=O)c2ccc(C)cc2)c(C)c1[C@@H]3Cn1cc(-c2ccc(OC)cc2)nn1 | 1020 | 1720 | 310 | – | 1640 | 1470 | 37 |
| C=C1C(=O)[C@]23C[C@@]1(O)CC[C@H]2c1ccc(O)c(C)c1[C@@H]3Cn1cc(-c2ccc(Br)cc2)nn1 | 560 | 1300 | 270 | 36 | 310 | 1140 | – |
| C=C1C(=O)[C@]23C[C@@]1(O)CC[C@H]2c1ccc(OS(=O)(=O)c2ccc(C)cc2)c(C)c1[C@@H]3Cn1cc(-c2ccc(F)cc2)nn1 | 1290 | 4280 | 330 | – | 1630 | 1950 | 35 |
| C=C1C(=O)[C@]23C[C@@]1(O)CC[C@H]2c1ccc(OS(=O)(=O)c2ccc(C)cc2)c(C)c1[C@@H]3Cn1cc(-c2ccc(C)cc2)nn1 | 1110 | 4410 | 320 | – | 1460 | 1830 | 36 |
| C=C1C(=O)[C@]23C[C@@]1(O)CC[C@H]2c1ccc(OS(=O)(=O)c2ccc(C)cc2)c(C)c1[C@@H]3Cn1cc(-c2ccc(Cl)cc2)nn1 | 1260 | 6180 | 1440 | – | 2390 | 1870 | 8 |
| C=C1C(=O)[C@]23C[C@@]1(O)CC[C@H]2c1ccc(OS(=O)(=O)c2ccc(C)cc2)c(C)c1[C@@H]3Cn1cc(-c2ccccn2)nn1 | 1810 | 2830 | 320 | – | 1970 | 2310 | 36 |
| C=C1C(=O)[C@]23C[C@@]1(O)CC[C@H]2c1ccc(O)c(C)c1[C@@H]3Cn1cc(-c2ccc(C)cc2)nn1 | 830 | 920 | 370 | 25 | 330 | 1260 | – |
| C=C1C(=O)[C@]23C[C@@]1(O)CC[C@H]2c1ccc(O)c(C)c1[C@@H]3Cn1cc(-c2ccc(OC)cc2)nn1 | 1150 | 860 | 1710 | 39 | 220 | 1250 | – |
| C=C1C[C@]23C[C@@]1(O)CC[C@@H]2c1cccc(C)c1[C@@H]3Cn1cc(-c2ccccc2)nn1 | > 20000 | > 20000 | > 20000 | – | > 20000 | > 20000 | – |
| C=C1C[C@]23C[C@@]1(O)CC[C@H]2c1cc(Br)c(O)c(C)c1[C@@H]3Cn1cc(-c2ccccc2)nn1 | > 20000 | > 20000 | > 20000 | – | > 20000 | > 20000 | – |
| C=C1C[C@]23C[C@@]1(O)CC[C@@H]2c1cccc(C)c1[C@@H]3Cn1cc(-c2ccc(Cl)cc2)nn1 | > 20000 | > 20000 | > 20000 | – | > 20000 | > 20000 | – |
| C=C1C[C@]23C[C@@]1(O)CC[C@H]2c1ccc(O)c(C)c1[C@@H]3Cn1cc(-c2ccccn2)nn1 | > 20000 | > 20000 | > 20000 | – | > 20000 | > 20000 | – |
| Cc1ccc(S(=O)(=O)Oc2ccc3c(c2C)[C@H](Cn2cc(-c4ccccn4)nn2)[C@@]24CC(=O)[C@@](C)(CC[C@@H]32)C4)cc1 | > 20000 | > 20000 | > 20000 | – | > 20000 | > 20000 | – |
| CC(=O)O[C@H]1C(=O)[C@@]2(C)[C@H]([C@H](OC(=O)c3ccccc3)[C@]3(O)C[C@H](OC(=O)[C@H](O)[C@@H](NC(=O)c4ccccc4)c4ccccc4)C(C)=C1C3(C)C)[C@]1(OC(C)=O)CO[C@@H]1C[C@@H]2O [PACLITAXEL] | < 8 | < 8 | < 8 | – | < 8 | < 8 | – |
| C=C1C[C@]23C[C@@]1(O)CC[C@@H]2c1cccc(C)c1[C@@H]3Cn1cc(-c2ccc(C(F)(F)F)cc2)nn1 | > 20000 | > 20000 | > 20000 | – | > 20000 | > 20000 | – |
| C=C1C[C@]23C[C@@]1(O)CC[C@H]2c1cc(Br)c(O)c(C)c1[C@@H]3Cn1cc(-c2ccccn2)nn1 | > 20000 | > 20000 | > 20000 | – | > 20000 | > 20000 | – |
